Data taken from US20020182717A1, “Method of preparing supported lipid film membranes and use thereof” (Biacore AB, priority 2001, published 2002).

Biological target: T1, rhodopsin (Bos taurus, UniProt P02699)
T1 construct: Gift: Dr. Andreas von Usedom, Institute for Medical Physics and Biophysics, Humboldt University, Berlin
Assay: Assay for rhodopsin functionality (transducin dissociation on illumination, SPR, BIACORE X)
Assay type: biochemical
Conditions: 10 μM 9-cis-retinal, after extended illumination and over night incubation
Procedure: In order to judge if the rhodopsin has a native and functional conformation after immobilization and supplementation with lipids as described in steps A and B above, its signaling capacity was assayed. When rhodopsin is activated by light, it transmits its signal by activating transducin. Activated transducin dissociates from the membrane under consumption of GTP (Heyse, S., et al., Biochemistry (1998) 37:507-522).
Measurements of transducin dissociation by activated rhodopsin were performed in a BIACORE X instrument into which an optical fiber had been inserted for illumination of the flow cells. The instrument temperature was set to 20° C. All the operations were performed under safe red light. […]
This solution was injected at 5 μl/min over both the rhodopsin and the reference flow cells in the manual mode. Upon injection, transducin bound readily to both the rhodopsin-POPC surface and the POPC reference surface, but when the injection was finished it dissociated very rapidly from the surface into the mobile phase of running buffer. […] The activation of the receptor was recorded as a surface mass decrease caused by dissociation of the activated transducin from the membrane. […]

T1 sequence (P02699 whole entry): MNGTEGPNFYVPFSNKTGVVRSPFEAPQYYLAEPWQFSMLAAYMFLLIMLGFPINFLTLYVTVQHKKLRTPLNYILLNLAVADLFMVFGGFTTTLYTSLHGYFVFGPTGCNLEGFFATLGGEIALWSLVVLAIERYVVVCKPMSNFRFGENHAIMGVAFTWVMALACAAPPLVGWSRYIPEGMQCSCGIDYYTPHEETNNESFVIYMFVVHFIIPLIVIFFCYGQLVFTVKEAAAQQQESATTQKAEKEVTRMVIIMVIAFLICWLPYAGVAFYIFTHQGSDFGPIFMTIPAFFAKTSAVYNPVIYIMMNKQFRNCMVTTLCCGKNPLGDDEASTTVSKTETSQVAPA

## CC1=C(/C=C/C(C)=C\C=C\C(C)=C\C=O)C(C)(C)CCC1 [9-cis-retinal]
  signalling capacity of exhausted reconstituted rhodopsin after ligand injection: recovery of the signalling capacity
